Experiments:
Experiment in all cases: Cell viability drug screen, 12-point dose-response AUC
Assay type in all cases: cell-based, human
FU97 = FU97 cells; 72 hours; 12-point dose-response
Method: (§1) Cells cultured for cell-based drug assay were inoculated into a 96-well white optical plate (Corning) at 5×10^3 cells per well. After 24 hours after inoculation, a 2.5 MJT (primary screen) or a half-log 12-serial diluent (secondary screen) of the pharmacological compound contained in DMSO is added to the cells with a robot using a BioMek FXp liquid processor (Beckman) to add to the cells at 50 mM. The final drug concentration in the 5 ns range and the DMSO specification control (0.5%) were calculated. The cells were then further incubated at 37° C. in a 5% CO2 incubator for 72 hours prior to measuring cell viability using the extra-GLO assay kit (Promega). The luminescent properties were measured after 15 min incubation at room temperature using a plate stacker equipped with a plate stacker. The normalized viability for the DMSO-based control was measured to generate a cell line-specific 12-point dose-response curve for each pharmacological compound, and then the area under the curve (AUC) was calculated using a trapezoidal method.

NCC19 = NCC19 cells; 72 hours; 12-point dose-response
Method: (§2) An FDA-approved small-molecule pharmacological compound (#L1300) and an anticancer compound for research (#L2000) were purchased from Selecckchem and a 10 mM solution was prepared in DMSO. A total of 1,345 compounds were tested the cell viability of the seven EMT gastric cancer cell lines.
as §1, with “method. […] The results of the repeated experiments were averaged to generate AUC values for each cell line for each compound.” for “method.”

OCUM1 = OCUM1 cells; 72 hours; 12-point dose-response
Method: as §2
as §1, with “method. […] The results of the repeated experiments were averaged to generate AUC values for each cell line for each compound.” for “method.”

MKN74 = MKN74 cells; 72 hours; 12-point dose-response
Method: as §2
as §1, with “method. […] The results of the repeated experiments were averaged to generate AUC values for each cell line for each compound.” for “method.”

SNU638 = SNU638 cells; 72 hours; 12-point dose-response
Method: as §2
as §1, with “method. […] The results of the repeated experiments were averaged to generate AUC values for each cell line for each compound.” for “method.”

YCC2 = YCC2 cells; 72 hours; 12-point dose-response
Method: as §2
as §1, with “method. […] The results of the repeated experiments were averaged to generate AUC values for each cell line for each compound.” for “method.”

NCC24 = NCC24 cells; 72 hours; 12-point dose-response
Method: as §2
as §1, with “method. […] The results of the repeated experiments were averaged to generate AUC values for each cell line for each compound.” for “method.”

MKN1 = MKN1 cells; 72 hours; 12-point dose-response
Method: as §2
as §1, with “method. […] The results of the repeated experiments were averaged to generate AUC values for each cell line for each compound.” for “method.”

SNU1750 = SNU1750 cells; 72 hours; 12-point dose-response
Method: as §2
as §1, with “method. […] The results of the repeated experiments were averaged to generate AUC values for each cell line for each compound.” for “method.”

SNU668 = SNU668 cells; 72 hours; 12-point dose-response
Method: as §2
as §1, with “method. […] The results of the repeated experiments were averaged to generate AUC values for each cell line for each compound.” for “method.”

MKN45 = MKN45 cells; 72 hours; 12-point dose-response
Method: as §2
as §1, with “method. […] The results of the repeated experiments were averaged to generate AUC values for each cell line for each compound.” for “method.”

YCC11 = YCC11 cells; 72 hours; 12-point dose-response
Method: as §2
as §1, with “method. […] The results of the repeated experiments were averaged to generate AUC values for each cell line for each compound.” for “method.”

SNU16 = SNU16 cells; 72 hours; 12-point dose-response
Method: as §2
as §1, with “method. […] The results of the repeated experiments were averaged to generate AUC values for each cell line for each compound.” for “method.”

YCC3 = YCC3 cells; 72 hours; 12-point dose-response
Method: as §2
as §1, with “method. […] The results of the repeated experiments were averaged to generate AUC values for each cell line for each compound.” for “method.”

SK4 = SK4 cells; 72 hours; 12-point dose-response
Method: as §2
as §1, with “method. […] The results of the repeated experiments were averaged to generate AUC values for each cell line for each compound.” for “method.”

SNU620 = SNU620 cells; 72 hours; 12-point dose-response
Method: as §2
as §1, with “method. […] The results of the repeated experiments were averaged to generate AUC values for each cell line for each compound.” for “method.”

SNU216 = SNU216 cells; 72 hours; 12-point dose-response
Method: as §2
as §1, with “method. […] The results of the repeated experiments were averaged to generate AUC values for each cell line for each compound.” for “method.”

MKN28 = MKN28 cells; 72 hours; 12-point dose-response
Method: as §2
as §1, with “method. […] The results of the repeated experiments were averaged to generate AUC values for each cell line for each compound.” for “method.”

SNU1 = SNU1 cells; 72 hours; 12-point dose-response
Method: as §2
as §1, with “method. […] The results of the repeated experiments were averaged to generate AUC values for each cell line for each compound.” for “method.”

NCI_N87 = NCI_N87 cells; 72 hours; 12-point dose-response
Method: as §2
as §1, with “method. […] The results of the repeated experiments were averaged to generate AUC values for each cell line for each compound.” for “method.”

SNU1967 = SNU1967 cells; 72 hours; 12-point dose-response
Method: as §2
as §1, with “method. […] The results of the repeated experiments were averaged to generate AUC values for each cell line for each compound.” for “method.”

SNU719 = SNU719 cells; 72 hours; 12-point dose-response
Method: as §2
as §1, with “method. […] The results of the repeated experiments were averaged to generate AUC values for each cell line for each compound.” for “method.”

NCC59 = NCC59 cells; 72 hours; 12-point dose-response
Method: as §2
as §1, with “method. […] The results of the repeated experiments were averaged to generate AUC values for each cell line for each compound.” for “method.”

SNU484 = SNU484 cells; 72 hours; 12-point dose-response
Method: as §2
as §1, with “method. […] The results of the repeated experiments were averaged to generate AUC values for each cell line for each compound.” for “method.”

SNU601 = SNU601 cells; 72 hours; 12-point dose-response
Method: as §2
as §1, with “method. […] The results of the repeated experiments were averaged to generate AUC values for each cell line for each compound.” for “method.”

NCC20 = NCC20 cells; 72 hours; 12-point dose-response
Method: as §2
as §1, with “method. […] The results of the repeated experiments were averaged to generate AUC values for each cell line for each compound.” for “method.”

AGS = AGS cells; 72 hours; 12-point dose-response
Method: as §2
as §1, with “method. […] The results of the repeated experiments were averaged to generate AUC values for each cell line for each compound.” for “method.”

Hs746T = Hs746T cells; 72 hours; 12-point dose-response
Method: as §2
as §1, with “method. […] The results of the repeated experiments were averaged to generate AUC values for each cell line for each compound.” for “method.”

KATO3 = KATO3 cells; 72 hours; 12-point dose-response
Method: as §2
as §1, with “method. […] The results of the repeated experiments were averaged to generate AUC values for each cell line for each compound.” for “method.”

Row | Structure (SMILES) | area under the viability curve (AUC), normalized (FU97) | area under the viability curve (AUC), normalized (NCC19) | area under the viability curve (AUC), normalized (OCUM1) | area under the viability curve (AUC), normalized (MKN74) | area under the viability curve (AUC), normalized (SNU638) | area under the viability curve (AUC), normalized (YCC2) | area under the viability curve (AUC), normalized (NCC24) | area under the viability curve (AUC), normalized (MKN1) | area under the viability curve (AUC), normalized (SNU1750) | area under the viability curve (AUC), normalized (SNU668) | area under the viability curve (AUC), normalized (MKN45) | area under the viability curve (AUC), normalized (YCC11) | area under the viability curve (AUC), normalized (SNU16) | area under the viability curve (AUC), normalized (YCC3) | area under the viability curve (AUC), normalized (SK4) | area under the viability curve (AUC), normalized (SNU620) | area under the viability curve (AUC), normalized (SNU216) | area under the viability curve (AUC), normalized (MKN28) | area under the viability curve (AUC), normalized (SNU1) | area under the viability curve (AUC), normalized (NCI_N87) | further results
1 | CC(C)[C@]12O[C@H]1[C@@H]1O[C@]13[C@]1(O[C@H]1C[C@H]1C4=C(CC[C@@]13C)C(=O)OC4)[C@@H]2O [Triptolide] | −0.6238 | −1.507 | 1.992 | −0.8231 | 0.828 | 0.6309 | −1.656 | 0.6772 | −0.4213 | −1.284 | 1.157 | 0.4144 | 1.9544 | 2.62 | −1.232 | −0.986 | 1.18 | −0.03132 | −0.1207 | −0.7868 | area under the viability curve (AUC), normalized (SNU1967): −0.4902; area under the viability curve (AUC), normalized (SNU719): 4.573; area under the viability curve (AUC), normalized (NCC59): 0.356; area under the viability curve (AUC), normalized (SNU484): −1.234; area under the viability curve (AUC), normalized (SNU601): 0.3854; area under the viability curve (AUC), normalized (NCC20): 0; area under the viability curve (AUC), normalized (AGS): −1.267; area under the viability curve (AUC), normalized (Hs746T): 0.17; area under the viability curve (AUC), normalized (KATO3): 5.715
2 | CC(C)C[C@H](NC(=O)CNC(=O)c1cc(Cl)ccc1Cl)B(O)O [MLN2238] | 0 | −0.8166 | 2.118 | −0.2214 | −0.5736 | 0.04339 | −1.21 | 0.3958 | −1.896 | 1.1951 | 0.4006 | −1.695 | 0.7701 | 2.808 | 0.5584 | −0.9643 | 0.2331 | 0.5257 | −0.5037 | 1.708 | area under the viability curve (AUC), normalized (SNU1967): −1.676; area under the viability curve (AUC), normalized (SNU719): 0.4168; area under the viability curve (AUC), normalized (NCC59): 0.318; area under the viability curve (AUC), normalized (SNU484): −0.4125; area under the viability curve (AUC), normalized (SNU601): −0.2758; area under the viability curve (AUC), normalized (NCC20): −1.247; area under the viability curve (AUC), normalized (AGS): −0.8012; area under the viability curve (AUC), normalized (Hs746T): −1.189; area under the viability curve (AUC), normalized (KATO3): 0.7115
